Patent US20170176446A1, “Methods for Determining the Oncogenic Condition of Cell, Uses Thereof, and Methods for Treating Cancer” (INSERM (INSTITUT NATIONAL DE LA SANTE ET DE LA RECHERCHE …, priority 2009, published 2017)

Key:
MCF7 cells [1] = experiment: OCDO production by MCF7 cells incubated with [14C]CE, thin-layer chromatography; assay type: cell-based, human; conditions: for % CE / % CT / % OCDO: [14C]CEα, concentration given with each compound, share of labeled oxysterols
Excerpt: For assays 1 to 5 and in some of the examples given later in this patent application, MCF7 tumor cells, which originate from the American Tissue Culture Collection (ATCC), were used. […] It is desired to study the activity of ChEH in […] cells by silica thin-layer chromatography. The compounds that it is desired to visualize are the CE and CT compounds defined above. In order to visualize the spots corresponding to CE and CT on a chromatography plate, ^14C-labeled CE and CT compounds were synthesized.
In order to be used in assays 1 to 5 which follow, the cells are seeded into 6-well plates at a density of 80 000 cells in a volume of 2 ml. […] After the incubation time desired for the assay, the medium is collected, the cells are washed with cold PBS (phosphate buffer) (2 ml per well) which is pooled with the medium. The cells are then scraped into cold PBS (1 ml for 3 wells); the wells are again rinsed with cold PBS (1 ml for 3 wells). The cell suspension obtained is centrifuged at 1000 rpm for 5 min at 4° C. […] Throughout the rest of this description, the vehicle solvent used is the same as that defined above.
The aqueous and organic radioactivities are counted. The organic phases are brought to dryness under argon. The residue is resuspended in 60 μl of ethanol and then deposited, in a proportion of 20 μl per lane, on to the glass-backed silica plates (Whatman LK-6-DF, 20×20), which are used in the various assays (these plates having been preheated at 100° C. for 1 hour). The migration solvent used is ethyl acetate. The chromatography plates are placed in contact with a “phosphor-screen” plate in a cassette overnight. […] In order to evaluate the more or less dense nature of the spots obtained on the plates, the radioactivity is quantified by densitometry with the “Imagequant”™ computer program.
(§1) Generally, in order to establish the percentages of OCDO inhibition from the thin-layer chromatography (TLC) plates obtained as in assay 2, the radioactive metabolites are identified and quantified on the basis of said plates using a europium-sensitive plate of GP Phosphor screen type (GE Healthcare) and a Storm 840 phosphorimagor (GE Healthcare). The proportion of radiolabeled oxysterols is determined on the autoradiogram obtained by densitometry using the Image Quant 5.2 software. The percentage is calculated on the basis of the ratio between the amount of oxysterols quantified divided by the sum of the amounts of oxysterols (CEE+CE+CT+OCDO). Since the CEE (CE ester) originates exclusively from the CE, the percentage CE is calculated on the basis of the ratio (CE+CEE)/(CE+CEE+CT+OCDO).
Assay 2 given above was therefore completed by measuring the amounts of the products present when the MCF7 tumor cells are incubated as indicated in detail in assay 2.
In order to establish that the link that exists between, on the one hand, the ability of various compounds to inhibit OCDO in an MCF7 tumor cell and, on the other hand, their quality as a ChEH inhibitor, is well-founded, the inhibition coefficients Ki for ChEH relating to a certain number of products was calculated and the production of OCDO by MCF7 cells after incubation of the cells with the same products was measured according to the protocol defined in assay 2 of the present patent application.

ChEH = biological target: T1, ChEH (Rattus norvegicus, UniProt Q9JJ46); experiment: Determination of the Ki for ChEH on rat liver microsome proteins (Dixon method); assay type: biochemical; conditions: 150 μg rat liver microsome proteins, [14C]CEα
T1 construct: 150 μg of rat liver microsome proteins are incubated; from tissue; host or cells: rat liver microsomes
T1 sequence (Q9JJ46 1-230): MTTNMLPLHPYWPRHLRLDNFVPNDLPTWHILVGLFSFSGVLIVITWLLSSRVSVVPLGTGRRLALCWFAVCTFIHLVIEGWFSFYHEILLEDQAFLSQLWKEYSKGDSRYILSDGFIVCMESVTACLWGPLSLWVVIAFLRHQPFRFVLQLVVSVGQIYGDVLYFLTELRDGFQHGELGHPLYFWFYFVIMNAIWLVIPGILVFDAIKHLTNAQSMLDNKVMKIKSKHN

MCF7 cells [2] = experiment: OCDO production by MCF7 cells incubated with [14C]CT for 24 hours (example 11); assay type: cell-based, human; conditions: 10 μM, control = 100
Description: as §1
The following experiments were carried out: MCF7 tumor cells were placed in the presence of 0.5 μM of [^14C]CT and were then incubated for 24 hours in the presence of one of the following products: • 1. vehicle solvent (0.1% ethanol in a PBS buffer) serving as a control (lane 1) • 2. 10 μM of progesterone • 3. 10 μM of U18666A • 4. 100 nM of TCDD • 5. 10 μM of benzo(A)pyrene • 6. 10 μM of resveratrol • 7. 10 μM of PDM2 (Ant. 1).
Thin-layer chromatographies were carried out and FIG. 24 represents the plate obtained. The OCDO production in the treated cells was quantified from the spots of the various lanes, by applying the protocol given in detail in example 7. The results of this quantification are represented by the histogram of FIG. 24.
The amounts of OCDO produced by MCF7 cells, when they are incubated according to the same protocol as defined above with other Ahr receptor antagonists, was also measured, the control test being brought to 100 and the OCDO production being expressed as % of the control (same control as above).

[3] = concentration in μM in parentheses after each molecule, control = 100

| Compound | OCDO production by MCF-7 (% control) (MCF7 cells [1]; [3]) | Ki (ChEH) | other results |
| --- | --- | --- | --- |
| CCN(CC)CCOc1ccc(/C(=C(\Cl)c2ccccc2)c2ccccc2)cc1 [Clomiphene, 2-[4-[(Z)-2-chloro-1,2-di(phenyl)ethenyl]-phenoxy]-N,N-diethylethanamine] | <1 % control |  |  |
| CC(C)CCC[C@@H](C)[C@H]1CC[C@H]2[C@@H]3C[C@@H]4O[C@@]45C[C@@H](O)CC[C@]5(C)[C@H]3CC[C@]12C [CEα, 5,6-α-epoxycholestan-3β-ol] |  |  | % CE (MCF7 cells [1]; MCF7 cells, three days): 31.5%; % CT (MCF7 cells [1]; MCF7 cells, three days): 41.5%; % OCDO (MCF7 cells [1]; MCF7 cells, three days): 27% |
| CCCC(C(=O)OCCN(CC)CC)(c1ccccc1)c1ccccc1 [SKF-525A, 2-diethylaminoethyl-2,2-diphenylpentanoate] | <1 % control | 1904 ± 11 nM |  |
| Clc1ccccc1CNC[C@H]1CC[C@H](CNCc2ccccc2Cl)CC1 [AY-9944, trans-1,4-bis(2-chlorobenzaminomethyl)-cyclohexane] | <1 % control | 649 ± 6 nM |  |
| CCN(CC)CCOc1ccc(Cc2ccccc2)cc1 [Tesmilifene, 2-(4-benzylphenoxy)-N,N-diethylethanamine] | <1 % control | 62.4 ± 3 nM | % CE (MCF7 cells [1]; MCF7 cells, three days): 80.7%; % CT (MCF7 cells [1]; MCF7 cells, three days): 10.5%; % OCDO (MCF7 cells [1]; MCF7 cells, three days): 8.8% |
| Fc1ccc(/C=C/c2cc(F)cc(F)c2)cc1 [Ant 3, (E)-1-(4′-fluorophenyl)-2-(3,5-fluorophenyl)-ethene] |  |  | OCDO production by MCF-7 (% control) (MCF7 cells [2]): <1 % control |
| CC(C)(c1ccccc1)c1ccc(OCCN2CCCC2)cc1 [PCPE, 1-(2-(4-(2-phenylpropan-2-yl)phenoxy)ethyl)-pyrrolidine] | <1 % control | 34.7 ± 8 nM |  |
| COc1cc(/C=C/c2ccc(F)cc2)cc(OC)c1 [Ant 5, (E)-1-(4′-fluorophenyl)-2-(3,5-dimethoxy-phenyl)ethene] |  |  | OCDO production by MCF-7 (% control) (MCF7 cells [2]): <1 % control |
| Clc1ccc(/C=C/c2cc(Cl)cc(Cl)c2)cc1 [Ant 1, (E)-1-(4′-chlorophenyl)-2-(3,5-dichlorophenyl)-ethene] |  |  | OCDO production by MCF-7 (% control) (MCF7 cells [2]): <1 % control |
| CCN(CC)CCOc1ccc(C2C[C@]3(C)C(O)CC[C@H]3[C@@H]3CCc4cc(O)ccc4[C@@H]23)cc1 (some centres unmarked) [RU 39,411, 11-[4-N,N-[diethylaminoethoxy]phenyl]estra-1,3,5(10)triene-3,17-diol] | <1 % control | 155 ± 8 nM |  |
| CN1CCN(CCCN2c3ccccc3Sc3ccc(C(F)(F)F)cc32)CC1 [Trifluoroperazine, 10-[3-(4-methylpiperazin-1-yl)propyl]-2-(trifluoromethyl)phenothiazine] | <1 % control | 135 ± 7 nM |  |
| Oc1ccc(C=Cc2cc(O)cc(O)c2)cc1 [Resveratrol] |  |  | OCDO production by MCF-7 (% control) (MCF7 cells [2]): <1 % control |
| CC[C@H](C)C(=O)O[C@H]1C[C@@H](C)C=C2C=C[C@H](C)[C@H](CC[C@@H]3C[C@@H](O)CC(=O)O3)[C@H]21 [lovastatin] |  |  | OCDO production by the MCF7 cells (MCF7 cells [1]; 10 μM, control brought to the value 100): less than 1 |
| CC(=O)N1CCN(c2ccc(OCC3COC(Cn4ccnc4)(c4ccc(Cl)cc4Cl)O3)cc2)CC1 (centres unmarked) [ketoconazole] |  |  | production of the epoxysterol CE and of its derivatives CT and OCDO (MCF7 cells [1]; 10 μM ketoconazole, three days, MCF7 cells): inhibition of the production of the epoxysterol CE and of its derivatives |
| COc1ccc(/C=C/c2cc(F)cc(F)c2)cc1 [Ant 2, (E)-1-(4′-methoxyphenyl)-2-(3,5-fluorophenyl)-ethene] |  |  | OCDO production by MCF-7 (% control) (MCF7 cells [2]): <1 % control |
| Ibogaine |  |  | OCDO production by MCF-7 (% control) (MCF7 cells [1]): 25 % control |
| (E)-N,3,6,6-tetramethyl-N-(naphthalen-1-ylmethyl)hept-2-en-4-yn-1-amine [Terbinafine] | <1 % control | 9105 ± 33 nM |  |
| CCCCc1oc2ccccc2c1C(=O)c1cc(I)c(OCCN(CC)CC)c(I)c1 [Amiodarone, (2-butyl-1-benzofuran-3-yl)-[4-(2-diethylaminoethyloxy)-3,5-diiodophenyl]methanone] | 8 % control |  |  |
| C[C@@H]1CN(CCCn2c3ccccc3c3ccccc32)C[C@H](C)N1 [Rimcazole, 9-[3-[(3S,5R)-3,5-dimethylpiperazin-1-yl]propyl]carbazole] | 12 % control | 2325 ± 8 nM |  |
| FC(F)(F)c1ccc(/C=C/c2cc(C(F)(F)F)cc(C(F)(F)F)c2)cc1 [Ant 4, (E)-1-(4′-trifluoromethylphenyl)-2-(3,5-trifluoromethylphenyl)ethene] |  |  | OCDO production by MCF-7 (% control) (MCF7 cells [2]): <1 % control |
| COc1ccc(/C(=C(\c2ccccc2)[N+](=O)[O-])c2ccc(OCCN3CCCC3)cc2)cc1 [Nitromiphene, 1-[2-[4-[(Z)-1-(4-methoxyphenyl)-2-nitro-2-phenylethenyl]phenoxy]ethyl]pyrrolidine] | <1 % control | 17.7 ± 6 nM |  |
| O=C(c1ccc(OCCN2CCCCC2)cc1)c1c(-c2ccc(O)cc2)sc2cc(O)ccc12 [Raloxifene, [6-hydroxy-2-(4-hydroxyphenyl)-1-benzothiophen-3-yl]-[4-(2-piperidin-1-ylethoxy)phenyl]methanone] | <1 % control | 35.6 ± 4 nM | % CE (MCF7 cells [1]; MCF7 cells, three days): 96.5%; % CT (MCF7 cells [1]; MCF7 cells, three days): 3%; % OCDO (MCF7 cells [1]; MCF7 cells, three days): 0.5% |
| O=C(CCCN1CCC(O)(c2ccc(Cl)cc2)CC1)c1ccc(F)cc1 [Haloperidol, 4-(4-(4-chlorophenyl)-4-hydroxypiperidin-1-yl)-1-(4-fluorophenyl)butan-1-one] | 42 % control |  |  |
| CCN(CC)CCOc1ccc(C(O)(Cc2ccc(Cl)cc2)c2ccc(C)cc2)cc1 (centres unmarked) [Triparanol] | <1 % control | 39.5 ± 3 nM |  |
| CCN(CC)CCO[C@H]1CC[C@@]2(C)C(=CC[C@@H]3[C@@H]2CC[C@]2(C)C(=O)CC[C@@H]32)C1 [U-18666A, 3-beta-(2-(diethylamino)ethoxy)androst-5-en-17-one] | <1 % control | 90.3 ± 5 nM |  |
| CC/C(=C(\c1ccc(O)cc1)c1ccc(OCCN(C)C)cc1)c1ccccc1 [4OH-Tamoxifen, 4-[(Z)-1-[4-(2-dimethylaminoethyloxy)-phenyl]-2-phenylbut-1-enyl]phenol] | <1 % control | 145 ± 4 nM |  |
